US20250382361A1, “AFFIBODIES, HYDROGELS CONTAINING AFFIBODIES, AND USES THEREOF” (University of Oregon, priority 2024, published 2025)
Like-named read-outs stand apart in the source and are kept apart here.

Assays:
HUVECs [1] = experiment: Endothelial tube formation assay; format: cell-based, human
Method: Human umbilical vein endothelial cells (HUVECs) were seeded in tissue culture flasks at 2,500 cells/cm^2 and cultured in complete Endothelial Growth Medium (Lonza, Walkersville, MD) at 37° C. and 5% CO2. Upon reaching 60-80% confluence, cells were washed with PBS, trypsinized, and seeded at 5,000 or 15,000 cells/well onto 96-well plates pre-coated with 100 μL of Cultrex Reduced Growth Factor Basement Membrane Extract (RGF BME, R&D Systems). HUVECs were allowed to adhere to the coated surface for 2 hours. […] Cells were cultured for 48 hours on a BioTek Lionheart FX automated microscope (Agilent Technologies, Santa Clara, CA) at 37° C. and 5% CO2 with 4× phase contrast time lapse images taken at 4, 8, 12, 16, 20, 24, and 48 hours. Total network length and branching of HUVEC networks were measured from images using the Angiogenesis Analyzer plugin for ImageJ.
Responses of HUVECs to each of the three growth factors of interest were first studied.

HUVECs [2] = experiment: VEGF bioactivity HUVEC proliferation assay (CellTiter-Glo); format: cell-based, human; settings: VEGF for 96 hours
antithrombin-III = antithrombin-III (Homo sapiens, UniProt P01008); settings: cited from earlier work
VEGF165 = molecular target: T1, VEGF165 (Homo sapiens, UniProt P15692); settings: cited from earlier work
T1 construct: biotin (label as supplied by the vendor); purchased Acro Biosystems
T1 sequence (P15692 1-191 isoform P15692-4): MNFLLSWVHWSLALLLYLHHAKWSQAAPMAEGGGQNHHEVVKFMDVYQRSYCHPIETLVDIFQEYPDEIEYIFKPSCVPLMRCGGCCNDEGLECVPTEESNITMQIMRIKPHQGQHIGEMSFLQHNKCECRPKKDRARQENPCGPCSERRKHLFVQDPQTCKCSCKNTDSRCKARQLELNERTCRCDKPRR

[3] = molecular target: fibroblast growth factor-1 (Homo sapiens, UniProt P05230); settings: cited from earlier work
integrin α5β1 = integrin α5β1 (Homo sapiens, UniProt P05556+P08648); settings: cited from earlier work
[4] = molecular target: PDGF receptor beta (PDGFRβ) on NIH/3T3-Luc cells (UniProt P05622 32-1098, limits assumed); experiment: cell-based or functional assay
NIH/3T3-Luc cells = experiment: PDGF bioactivity luciferase reporter assay; format: cell-based; settings: PDGF for 5 hours
Method: NIH/3T3 fibroblast cells (ATCC) were thawed, seeded at 10,000 cell/cm^2, and expanded in growth medium consisting of DMEM containing 10% (v/v) fetal bovine serum (R&D Systems, Minneapolis, MN). Cultures were routinely maintained at 37° C. and 5% CO2 and passaged at 60-70% confluence. After three passages of expansion, NIH/3T3 cells were grown in Eagle's Minimal Essential Medium (EMEM, ATCC) for a single passage prior to transfection. Transfection mixtures were prepared according to the manufacturer's protocols. Briefly, 2500 ng of luciferase reporter plasmid pGL4.33 [luc2P/SRE/Hygro] […]
NIH/3T3-Luc cells were seeded at 31,250 cells/cm^2 and incubated in 100 μL of growth medium overnight in 96 well plates. […] Luminescence was then measured using SpectraMax 13 plate reader (Molecular Devices, San Jose, CA).
PDGF bioactivity was assessed using NIH/3T3 cells transfected with a firefly luciferase gene reporter plasmid that links multiple ERK1/2 signaling pathways, including PDGFRβ signaling, to luciferase expression through a serum response element under the regulation of ERK1/2 (FIG. 30A). […] Firefly luciferase expression was assessed via the conversion of 5′-fluoroluciferin to oxyfluoroluciferin, which generates a stable luminescent output correlated to firefly luciferase concentration. […]

[5] = molecular target: T2, Recombinant VEGF165 (vascular endothelial growth factor) (UniProt P15692-4 27-191, biotinylated (bVEGF) in flow cytometry and BLI); experiment: biolayer interferometry, 25 nM bVEGF on streptavidin probes, soluble affibody 15.625-125 nM
T2 construct: also called VEGF-A (165); bVEGF
Method: All samples were diluted in PBS solution containing 0.05% Tween-20® (PBST). […] Dissociation constants were obtained from a 1:1 global curve fitting of the data. n=4.

[6] = molecular target: T3, Recombinant human BMP-2 (bone morphogenetic protein 2) (human, UniProt P12643 283-396, biotinylated with Sulfo-NHS-Biotin (bBMP-2) in flow cytometry and BLI); experiment: flow cytometry, yeast-displayed affibody titrated with bBMP-2 0.5-1000 nM
T3 construct: Bought protein; also called bBMP-2; bBMP
From the text: Yeast clones with names starting with the letter A were identified using the gating approach in FIG. 2A, and yeast clones with names starting with B were identified using the gate approach in FIG. 2B. The affibodies chosen for further characterization are boxed in the legend.

T3 sequence (P12643 283-396 limits assumed): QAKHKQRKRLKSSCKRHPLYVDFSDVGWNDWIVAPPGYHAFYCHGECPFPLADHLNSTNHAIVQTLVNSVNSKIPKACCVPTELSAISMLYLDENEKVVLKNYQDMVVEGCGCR
Chain of integrin α5β1 (P08648 42-894 limits assumed): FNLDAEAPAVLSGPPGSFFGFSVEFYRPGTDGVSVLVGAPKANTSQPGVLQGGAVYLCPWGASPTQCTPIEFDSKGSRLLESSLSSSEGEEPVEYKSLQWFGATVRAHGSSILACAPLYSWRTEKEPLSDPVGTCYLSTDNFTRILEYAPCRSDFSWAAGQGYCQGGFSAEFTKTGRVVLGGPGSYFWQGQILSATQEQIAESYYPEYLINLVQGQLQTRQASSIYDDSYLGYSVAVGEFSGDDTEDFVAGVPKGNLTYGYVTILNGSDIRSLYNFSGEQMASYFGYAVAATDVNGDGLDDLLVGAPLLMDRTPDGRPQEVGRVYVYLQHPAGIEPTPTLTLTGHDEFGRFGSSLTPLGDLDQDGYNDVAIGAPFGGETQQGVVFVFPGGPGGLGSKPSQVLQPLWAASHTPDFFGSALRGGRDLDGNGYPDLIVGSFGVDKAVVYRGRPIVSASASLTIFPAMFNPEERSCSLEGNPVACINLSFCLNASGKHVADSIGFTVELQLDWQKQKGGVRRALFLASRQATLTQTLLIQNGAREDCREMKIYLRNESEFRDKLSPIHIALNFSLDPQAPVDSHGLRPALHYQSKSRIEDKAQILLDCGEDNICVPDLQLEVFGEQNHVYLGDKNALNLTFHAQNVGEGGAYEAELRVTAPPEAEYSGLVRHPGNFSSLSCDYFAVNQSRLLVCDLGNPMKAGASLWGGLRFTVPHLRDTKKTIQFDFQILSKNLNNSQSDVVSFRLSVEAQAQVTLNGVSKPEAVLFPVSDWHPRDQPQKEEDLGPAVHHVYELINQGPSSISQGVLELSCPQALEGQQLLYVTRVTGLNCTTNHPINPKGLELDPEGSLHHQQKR
Chain of integrin α5β1 (P08648 895-1049 limits assumed): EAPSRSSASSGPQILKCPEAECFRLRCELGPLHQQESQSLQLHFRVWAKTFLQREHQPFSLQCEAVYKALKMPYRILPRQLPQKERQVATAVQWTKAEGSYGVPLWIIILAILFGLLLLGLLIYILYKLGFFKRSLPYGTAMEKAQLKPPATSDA
Chain of integrin α5β1 (P05556 21-798): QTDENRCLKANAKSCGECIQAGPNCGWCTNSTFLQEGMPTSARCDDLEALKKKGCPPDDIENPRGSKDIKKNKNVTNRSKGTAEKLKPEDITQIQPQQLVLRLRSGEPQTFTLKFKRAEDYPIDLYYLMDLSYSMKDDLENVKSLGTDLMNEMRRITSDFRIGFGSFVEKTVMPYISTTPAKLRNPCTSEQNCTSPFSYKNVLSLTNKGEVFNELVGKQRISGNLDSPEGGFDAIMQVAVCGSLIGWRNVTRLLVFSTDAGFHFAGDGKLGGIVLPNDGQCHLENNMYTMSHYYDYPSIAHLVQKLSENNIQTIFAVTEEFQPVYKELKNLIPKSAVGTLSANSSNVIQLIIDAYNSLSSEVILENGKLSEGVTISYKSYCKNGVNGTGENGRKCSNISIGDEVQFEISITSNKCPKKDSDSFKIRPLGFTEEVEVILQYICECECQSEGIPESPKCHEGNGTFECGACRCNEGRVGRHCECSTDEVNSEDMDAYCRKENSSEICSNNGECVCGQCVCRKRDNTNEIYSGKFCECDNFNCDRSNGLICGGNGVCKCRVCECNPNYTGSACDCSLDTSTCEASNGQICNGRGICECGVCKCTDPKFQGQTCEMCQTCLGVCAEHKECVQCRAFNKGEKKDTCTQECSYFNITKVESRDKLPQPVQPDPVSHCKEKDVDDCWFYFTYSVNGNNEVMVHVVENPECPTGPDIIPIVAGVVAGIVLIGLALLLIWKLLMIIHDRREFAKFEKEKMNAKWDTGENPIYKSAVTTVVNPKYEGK
Chain of antithrombin-III (P01008 33-464, species assumed): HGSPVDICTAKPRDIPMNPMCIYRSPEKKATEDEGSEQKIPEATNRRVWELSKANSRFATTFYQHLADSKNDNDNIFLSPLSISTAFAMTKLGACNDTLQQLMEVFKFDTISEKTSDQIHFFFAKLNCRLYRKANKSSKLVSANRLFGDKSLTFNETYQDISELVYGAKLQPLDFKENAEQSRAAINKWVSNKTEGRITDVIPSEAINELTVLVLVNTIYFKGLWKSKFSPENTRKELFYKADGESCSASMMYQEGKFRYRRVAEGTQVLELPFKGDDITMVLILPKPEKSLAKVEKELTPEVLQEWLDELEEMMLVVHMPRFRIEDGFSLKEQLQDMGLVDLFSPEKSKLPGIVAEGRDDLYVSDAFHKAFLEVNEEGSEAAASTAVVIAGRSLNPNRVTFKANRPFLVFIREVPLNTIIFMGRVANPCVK
Chain of fibroblast growth factor-1 (P05230 whole entry, species assumed): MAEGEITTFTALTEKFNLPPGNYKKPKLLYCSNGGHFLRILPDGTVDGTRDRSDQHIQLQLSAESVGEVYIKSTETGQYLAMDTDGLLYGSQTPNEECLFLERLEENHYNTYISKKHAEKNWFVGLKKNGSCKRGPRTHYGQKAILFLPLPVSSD
Chain of PDGF receptor beta (PDGFRβ) on NIH/3T3-Luc cells (P05622 32-1098 limits assumed): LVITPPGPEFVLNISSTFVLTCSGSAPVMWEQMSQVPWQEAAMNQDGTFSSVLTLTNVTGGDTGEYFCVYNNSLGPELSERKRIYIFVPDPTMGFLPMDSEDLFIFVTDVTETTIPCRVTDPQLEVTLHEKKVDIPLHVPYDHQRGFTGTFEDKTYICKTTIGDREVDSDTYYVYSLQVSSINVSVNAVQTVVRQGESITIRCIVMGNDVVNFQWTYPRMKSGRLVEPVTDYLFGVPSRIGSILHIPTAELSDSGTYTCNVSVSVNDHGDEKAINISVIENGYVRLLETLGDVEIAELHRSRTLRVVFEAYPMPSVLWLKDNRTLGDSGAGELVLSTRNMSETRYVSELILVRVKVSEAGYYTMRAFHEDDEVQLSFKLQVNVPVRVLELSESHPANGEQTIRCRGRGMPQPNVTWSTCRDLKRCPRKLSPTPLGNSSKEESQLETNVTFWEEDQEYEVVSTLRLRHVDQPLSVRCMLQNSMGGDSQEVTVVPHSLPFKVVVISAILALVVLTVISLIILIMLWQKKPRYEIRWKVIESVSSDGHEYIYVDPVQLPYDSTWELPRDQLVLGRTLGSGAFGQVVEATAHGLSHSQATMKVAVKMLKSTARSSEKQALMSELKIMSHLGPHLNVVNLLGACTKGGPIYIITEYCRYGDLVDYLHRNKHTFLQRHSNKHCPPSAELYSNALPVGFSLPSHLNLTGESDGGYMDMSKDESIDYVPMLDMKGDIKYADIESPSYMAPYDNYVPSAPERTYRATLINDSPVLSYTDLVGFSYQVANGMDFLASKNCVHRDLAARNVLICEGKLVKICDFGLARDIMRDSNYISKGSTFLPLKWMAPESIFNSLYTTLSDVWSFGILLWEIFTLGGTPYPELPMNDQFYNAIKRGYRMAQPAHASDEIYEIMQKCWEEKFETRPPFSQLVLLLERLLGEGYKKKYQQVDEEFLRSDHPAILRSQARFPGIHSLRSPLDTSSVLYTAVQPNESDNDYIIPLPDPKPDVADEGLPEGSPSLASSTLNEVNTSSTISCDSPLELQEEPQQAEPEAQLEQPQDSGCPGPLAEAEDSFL

For FGF-2: Recombinant FGF-2 (PeproTech), which “HUVEC network length and branching” value (HUVECs [1]; 5, 10, or 50 ng/mL) is on record?
Its value is “limited impact”.

Which results are given for VEGF?
maximum response (HUVECs [2]): approximately 36,000 relative luminescent units (RLUs); HUVEC network length and branching (HUVECs [1]): limited impact

What does the source list for heparin?
Kd (antithrombin-III): 163 nM; Kd (VEGF165): 165 nM; Kd [3]: 461 nM; Kd (integrin α5β1): 2040 nM

B1: Recombinant human PDGF-BB (platelet-derived growth factor) (ligand, UniProt P01127 82-190, looked up)
chain: SLGSLTIAEPAMIAECKTRTEVFEISRRLIDRTNANFLVWPPCVEVQRCSGCCNNRNVQCRPTQVQLRPVQVRKIEIVRKKPIFKKATVTLEDHLACKCETVAAARPVT
modifications: biotinylated (bPDGF) in flow cytometry and off-target BLI; not biotinylated in the Ni-NTA BLI
With B1 as the molecule, how does the “50% effective dose (EC50), luminescence of NIH/3T3-Luc reporter cells” value [4] read?
Its value is 2.94 ng/mL.

B2: PDGF: Recombinant PDGF-BB (PeproTech) (protein)
chain: B1 chain
What does the source list for B2?
maximal response (NIH/3T3-Luc cells): 23,655 relative luminescent units (RLUs); HUVEC network length and branching (HUVECs [1]; 5, 10, or 50 ng/mL): limited impact

B3: Moderate Affinity BMP-2 Affibody, soluble, with hexahistidine tag and C-terminal cysteine (SEQ ID NO: 72) (designed binder)
chain: AEAKYAKEQFNAYVVIFYLPNLTASQKAAFVDALSNDPSQSSELLSEAKKLNDSQAPKHHHHHHC
notes: E. coli-expressed; also called A2-2
Does B3 bind [5]?
Result: no binding (tested: 125 nM)

B4: Moderate Affinity BMP-2 affibody A2-2 (SEQ ID NO: 2), yeast-displayed (designed binder)
chain: AEAKYAKEQFNAYVVIFYLPNLTASQKAAFVDALSNDPSQSSELLSEAKKLNDSQAPK
For B4, which “EC50 (read off the curve)” value [6] is on record?
Its value is roughly 20 nM.

B5: BMP-2 affibody A3-2 (SEQ ID NO: 9), yeast-displayed (designed binder)
chain: B4 chain
With B5 as the molecule, how does the “EC50 (read off the curve)” value [6] read?
The value was roughly 10 nM.
